Eight compounds from patent US20130203602A1, “SUPPORTED BIOLOGICALLY ACTIVE COMPOUNDS” (Danmarks Tekniske Universitet, priority 2010, published 2013) can be followed below.

A short description of this series: Thermal stability determination by thermogravimetric analysis (TGA). The series is classed as physicochemical. The note with it: for Inflection point / T5% onset temperature: not supported/neat; for Inflection point: TGA 25-800° C., 5° C./min, under air; for temperature at which it starts to decompose: heated neat; for T5% onset temperature: TGA 5° C./min, under nitrogen.

Marks after values point to notes of the source that are not given here.

Under “neat compound, given with the synthesis example”, `CC(C)Cc1ccc(C(C)C(=O)O)cc1.CCN(CC)CC(=O)Nc1c(C)cccc1C` [[8], Lidocainium Ibuprofenate] yielded a T5%onset of 177 °C.
Consider `Nc1nc2c(ncn2COCCO)c(=O)[nH]1` [Trimethylhexadecylammonium acyclovir [3]] [Trimethylhexadecylammonium Aciclovir], for which the Inflection point amounted to 189 °C.
In the case of `CC(C)Cc1ccc(C(C)C(=O)O)cc1` (stereo not shown) [Ibuprofene, reference compound], the “temperature at which it starts to decompose” value was “around 150 °C” and the T5% onset temperature is given as 155* ° C.
Turning to `CC(C)Cc1ccc(C(C)C(=O)O)cc1` (stereo not shown) [Tetrabutylphosphonium Ibuprofenate [7]], the T5% onset temperature is listed as 236* ° C.
Turning to “Tributylmethylammonium Acyclovir [Tributylmethylammonium Acyclovir [2]]”, the Inflection point was 203 °C.
Same read-out and setting: with “Itraconazolium Dioctylsulfosuccinate [Itraconazolium Dioctylsulfosuccinate [5]]” the figure was 257 °C.
As for `Nc1nc2c(ncn2COCCO)c(=O)[nH]1` [Acyclovir, reference compound], the “temperature at which it starts to decompose” value is “around 249 °C” and the Inflection point was determined as 249 °C.
`O=C(O)CNCP(=O)(O)O` [Tetraethylammonium Glyphosate [6], Tetraethylammonium Glyphosate] showed an Inflection point of 150 °C.
